Measurements reported in patent US6890946B2, “Use of parthenolide to inhibit cancer” (Indiana University Research and Technology Corporation, priority 1999, dated 2005).
Peptide text beside a SMILES is read from it. * marks the point of attachment. Cbz = O=C(OCc1ccccc1)*

Assays:
[1] = system: NF-κB DNA binding activity in MDA-MB-231 cells; assay: EMSA of NF-κB DNA binding activity in MDA-MB-231 cells; settings: parthenolide 1, 2 and 5 μM for 3 h
Protocol: (§2) Electrophoretic Mobility Shift Assays (EMSAs). […] Cells were collected by trypsinization, washed in phosphate-buffered saline and resuspended in 125 μl of 2 μgs/ml RNase and 300 μl of propidium iodide containing buffer (50 μg/ml propidium iodide, 1 mg/ml sodium citrate, 0.03% NP40). The amount of propidium iodide incorporated was determined by FAScan analysis and the cell cycle distribution was determined using ModFit computer Software. Cell cycle distribution analysis was performed in a single blinded manner. Only diploid cells were considered while calculating the percentage of cells at each phase of cell cycle. • H. Statistical Analysis.

HBL100 cells [2] = assay: MTS cell survival assay, HBL100 cells; type: cell-based; settings: Homo sapiens, HBL-100, HBL100, 18 h, single agent, read-out: Half-maximal growth-inhibitory concentration (IC50)
MDA-MB-231 cells = assay: MTS cell survival assay, MDA-MB-231 cells; type: cell-based
From the text: (§1) The invention will be further described by reference to the following detailed examples wherein the following materials and methods were employed: • A. Breast Cancer Cell Lines. […] Electrophoretic Mobility Shift Assays (EMSAs). […] Antibodies for supershift assays were purchased from Santa Cruz Biotechnology (CA) or Upstate Biotechnology (NY). • D. Western Blotting. […] IκBα and Mn-SOD antibodies were purchased from Santa Cruz Biotechnology (CA) and Upstate Biotechnology, respectively. • E. Northern Blotting and RNase Protection. […] Twenty μgs of RNA were subjected to RNase protection using the hAPO-5 probe (PharMingen, San Diego, Calif.) as described by the manufacturers. • F. Drug Treatment, Cell Death Assays, Apoptosis Assay and PARP Cleavage. […] Apoptosis was measured by a histone-ELISA (Roche Diagnostics, Indianapolis, Ind.). […] Histone-DNA complexes in the supernatant were detected by ELISA. For the PARP cleavage assay, 5×10^5 cells were exposed to the indicated drugs for 24 h. […] Cells were collected by trypsinization, washed in phosphate-buffered saline and resuspended in 125 μl of 2 μgs/ml RNase and 300 μl of propidium iodide containing buffer (50 μg/ml propidium iodide, 1 mg/ml sodium citrate, 0.03% NP40). The amount of propidium iodide incorporated was determined by FAScan analysis and the cell cycle distribution was determined using ModFit computer Software. […]

HBL100 cells [3] = assay: cell cycle distribution analysis, HBL100 cells; type: cell-based; settings: HBL100 (data not shown)
From the text: as §1

[4] = system: PARP cleavage in HBL100 cells; assay: PARP cleavage Western blot, HBL100 cells; type: cell-based; settings: HBL100, 24 h, single agents: paclitaxel 1 nM and 5 nM, parthenolide 0.1 μM and 0.5 μM
From the text: as §1

LxSN11 cells [5] = assay: cell death ELISA (apoptosis), LxSN11 cells; settings: 18 h of paclitaxel treatment, culture supernatants
Protocol: Apoptosis was measured by ELISA.
(§3) To avoid loss of hypodiploid or other damaged cells during processing, the assay was performed with cell culture supernatants.

IκBαSR10 cells = assay: cell death ELISA (apoptosis), IκBαSR10 cells; settings: 18 h of paclitaxel treatment, culture supernatants
Protocol: Apoptosis was measured by ELISA.
as §3

p65−/− fibroblasts = assay: cell cycle progression of p65−/− fibroblasts; settings: for p65−/− G0/G1 / p65−/− S / p65−/− G2/M: 18 h
Protocol: as §2

wild type fibroblasts = assay: cell cycle progression of wild type fibroblasts; settings: for Wild type G0/G1 / Wild type G2/M / Wild type S: 18 h
Protocol: as §2

LxSN11 cells [6] = assay: flow cytometry cell cycle distribution, LxSN11 cells; settings: paclitaxel increased from 3 nM to 5 nM
Protocol: (§4) Apoptosis was measured by a histone-ELISA (Roche Diagnostics, Indianapolis, Ind.). […] Histone-DNA complexes in the supernatant were detected by ELISA. For the PARP cleavage assay, 5×10^5 cells were exposed to the indicated drugs for 24 h. […] Cells were collected by trypsinization, washed in phosphate-buffered saline and resuspended in 125 μl of 2 μgs/ml RNase and 300 μl of propidium iodide containing buffer (50 μg/ml propidium iodide, 1 mg/ml sodium citrate, 0.03% NP40). The amount of propidium iodide incorporated was determined by FAScan analysis and the cell cycle distribution was determined using ModFit computer Software. Cell cycle distribution analysis was performed in a single blinded manner. Only diploid cells were considered while calculating the percentage of cells at each phase of cell cycle. • H. Statistical Analysis. In synergy experiments, dose response curves for single agents were generated first.
(§5) Only diploid cells were considered while calculating the percentage of cells in different phases of the cell cycle.

IκBαSR6 cells = assay: flow cytometry cell cycle distribution, IκBαSR6 cells; settings: 5 nM paclitaxel, IκBαSR6, diploid cells only
Protocol: as §4, §5

LxSN11 and IκBαSR cells = assay: flow cytometry cell cycle analysis, all cell types (LxSN11 and IκBαSR clones of MDA-MB-231); settings: 3 nM paclitaxel
Protocol: as §4, §5

[7] = system: NF-κB DNA binding in HUVECs; assay: electromobility gel shift assay of NF-κB DNA binding in HUVECs; settings: three hours, bFGF 50 ng/mL, VEGF 100 ng/mL, rhuMAb VEGF 10 mg/mL
Protocol: HUVECs were plated on 100 mm plates and harvested in an exponential growth phase. […] The mixture was then electrophoresed. Specific NF-κB binding to DNA was identified by the presence of a signal seen at autoradiography. The protein-DNA complex was slower to migrate whereas unbound DNA and protein migrated off the gel.

breast cancer = settings: cited from earlier work

## CC(C)(C)c1ccc(S(=O)(=O)/C=C/C#N)cc1 [Bay 11-7085]
[1]
  ability to inhibit NF-κB DNA binding activity: inhibited

## COc1cc(/C=C/C(=O)CC(=O)/C=C/c2ccc(O)c(OC)c2)ccc1O [Curcumin]
[1]
  ability to inhibit NF-κB DNA binding activity: Only parthenolide, MG132 and Bay 11-7085 inhibited

## CC(C)C[C@@H](C=O)NC(=O)[C@H](CC(C)C)NC(=O)[C@H](CC(C)C)NC(=O)OCc1ccccc1 [MG132] (Cbz-Leu-Leu-Leu-aldehyde)
[1]
  ability to inhibit NF-κB DNA binding activity: inhibited

## CC(=O)N[C@@H](CS)C(=O)O [N-acetyl cysteine]
[1]
  ability to inhibit NF-κB DNA binding activity: Only parthenolide, MG132 and Bay 11-7085 inhibited

## O=C(O[C@@H]1Cc2c(O)cc(O)cc2O[C@@H]1c1cc(O)c(O)c(O)c1)c1cc(O)c(O)c(O)c1 [epigallocatechin gallate]
[1]
  ability to inhibit NF-κB DNA binding activity: Only parthenolide, MG132 and Bay 11-7085 inhibited

## CC(=O)O[C@H]1C(=O)[C@@]2(C)[C@H]([C@H](OC(=O)c3ccccc3)[C@]3(O)C[C@H](OC(=O)[C@H](O)[C@@H](NC(=O)c4ccccc4)c4ccccc4)C(C)=C1C3(C)C)[C@]1(OC(C)=O)CO[C@@H]1C[C@@H]2O [paclitaxel]
HBL100 cells [2]
  IC50: 10 nM
MDA-MB-231 cells; Homo sapiens, MDA-MB-231, 18 h, MTS, single agent
  IC50: > 30 nM
MDA-MB-231 cells; MDA-MB-231, 30 nM or higher concentrations of paclitaxel
  cells killed: 30%
HBL100 cells [3]
  G2/M arrest: arrested at G2/M
[4]
  PARP cleavage product: No PARP cleavage product was observed
LxSN11 cells [5]
  apoptosis by cell death ELISA: only a marginal increase in apoptosis
IκBαSR10 cells
  apoptosis by cell death ELISA: substantial increase in apoptotic death
p65−/− fibroblasts; p65−/− fibroblasts
  effect on cell cycle distribution: had no effect
p65−/− fibroblasts; paclitaxel 1 nM
  p65−/− G0/G1: 47 ± 2
  p65−/− S: 53 ± 1
p65−/− fibroblasts; paclitaxel 3 nM
  p65−/− G0/G1: 39 ± 6
  p65−/− G2/M: 1
  p65−/− S: 61 ± 7
p65−/− fibroblasts; paclitaxel 5 nM
  p65−/− G0/G1: 47 ± 2
  p65−/− G2/M: 14
  p65−/− S: 46 ± 6
p65−/− fibroblasts; paclitaxel 10 nM
  p65−/− G0/G1: 47 ± 2
  p65−/− G2/M: 6 ± 4
  p65−/− S: 48 ± 6
Wild type fibroblasts; paclitaxel 1 nM
  Wild type G0/G1: 68 ± 4
  Wild type G2/M: 17 ± 8
  Wild type S: 20 ± 4
Wild type fibroblasts; paclitaxel 3 nM
  Wild type G0/G1: 70 ± 3
  Wild type G2/M: 14 ± 5
  Wild type S: 16 ± 1
Wild type fibroblasts; paclitaxel 5 nM
  Wild type G0/G1: 71 ± 3
  Wild type G2/M: 17 ± 6
  Wild type S: 16 ± 4
Wild type fibroblasts; paclitaxel 10 nM
  Wild type G0/G1: 73 ± 2
  Wild type G2/M: 16 ± 6
  Wild type S: 15 ± 2
Wild type fibroblasts; wild type fibroblasts
  effect on cell cycle distribution: had no effect
LxSN11 cells [6]
  cell cycle distribution pattern: did not alter the cell cycle distribution pattern
IκBαSR6 cells
  percentage of cells at G2/M: 70.37±14.9%
LxSN11 and IκBαSR cells
  hypodiploid cells: approximately 30%

## CC(=O)CCCCn1c(=O)c2c(ncn2C)n(C)c1=O [pentoxyphylline]
[1]
  ability to inhibit NF-κB DNA binding activity: Only parthenolide, MG132 and Bay 11-7085 inhibited

## VEGF
[7]
  effect on NF-κB DNA binding: did not alter baseline NF-κB DNA binding

## bFGF: basic Fibroblast Growth Factor (R & D Systems) added to stimulate HUVECs
[7]
  effect on NF-κB DNA binding: induced greater DNA binding than VEGF

## rhuMAb VEGF: anti-angiogenic agent provided by Genentech, used in the electromobility gel shift assay
Breast cancer
  patients with tumor regression: 20%
[7]
  effect on NF-κB DNA binding: did not alter NF-κB DNA binding
